Marks after values point to notes of the source that are not given here.
Experiments:
rats subjected to sTBI = assay: sTBI rats, LMW-DS 15 mg/kg s.c.: HPLC of brain free amino acids (Example 3); format: in vivo, rat
[1] = system: keratinocytes and HDFn + (IL-1β, TNFα, IFNy and TGFβ); assay: BioMAP KF3CT system; format: cell-based, human; conditions: annotated relative to vehicle controls
Excerpt: Cell types and stimuli used in each system are as follows: 3C system [HUVEC + (IL-1β, TNFα and IFNy)], 4H system [HUVEC + (IL-4 and histamine)], LPS system [PBMC and HUVEC + LPS (TLR4 ligand)], SAg system [PBMC and HUVEC + TCR ligands], BT system [CD19+ B cells and PBMC + (α-IgM and TCR ligands)], BF4T system [bronchial epithelial cells and HDFn + (TNFα and IL-4)], BE3C system [bronchial epithelial cells + (IL-1β, TNFα and IFNy)], CASM3C system [coronary artery smooth muscle cells + (IL-1 β, TNFα and IFNy)], HDF3CGF system [HDFn + (IL-1β, TNFα, IFNy, EGF, bFGF and PDGF-BB)], KF3CT system [keratinocytes and HDFn + (IL-1β, TNFα, IFNy and TGFβ)], MyoF system [differentiated lung myofibroblasts + (TNFα and TGFβ)] and Mphg system [HUVEC and M1 macrophages + Zymosan (TLR2 ligand)].
Systems are derived from either single cell types or co-culture systems. Adherent cell types are cultured in 96 or 384-well plates until confluence, followed by the addition of PBMC (SAg and LPS systems). […] Soluble factors from supernatants are quantified using either HTRF® detection, bead-based multiplex immunoassay or capture ELISA. Overt adverse effects of test agents on cell proliferation and viability (cytotoxicity) are detected by sulforhodamine B (SRB) staining, for adherent cells, and alamarBlue® reduction for cells in suspension. […]

[2] = system: Human trabecular meshwork cells; assay: Fibronectin immunofluorescence in TGFβ2-stimulated trabecular meshwork cells; format: cell-based; conditions: TGFβ2 1.0 ng/ml + LMW-DS 4.0 µM, 72 hours
Description: Human trabecular meshwork cells (TMC-6590; ScienCell Research Laboratories, Carlsbad, CA) were cultured in TMC (6591; ScienCell Research Laboratories) complete medium and maintained at 37° C. in 5% CO2 until reaching 80-90% confluency. Cells were plated at densities of 5000-10000 cells per well in Greiner-Bio Cell 96 Well black Cell Culture Microplates (655090, Sigma) and left to adhere overnight. The following day cells were treated with TGFβ2 (1.0 ng/ml; Preprotech) and/or LMW-DS (4.0 µM; Tikomed AB) under serum free conditions for 72 hrs.
After 72 hrs treatments, cells were fixed using 4% PFA in PBS (28908, Thermo Fisher Scientific) for 10 minutes, washed with PBS and then washed with PBS containing saponin-based permeabilization buffer (00-8333-56, Thermo Fisher Scientific). Cells were then immunostained with anti-human Fibronectin Alexa Fluor® 488 (53-9869-82, Thermo Fisher Scientific) and nuclear stain Hoeschst 33342 (H21492, Thermo Fisher Scientific) in permeabilizing buffer in the dark for 1 hr at room temperature. […] Images were analyzed using the Yokogawa image analysis software.

ALS patients = assay: ALSAQ-40 sub-scores in ALS patients, dextran sulfate 2 mg/kg s.c. weekly for ten weeks (Example 14); format: in vivo, human; conditions: after 10 weeks of treatment
Description: Dextran sulfate (ILB®, Tikomed AB, Viken, Sweden, WO 2016/076780) was administered at 2 mg/kg by […] subcutaneous injection once a week for ten weeks to 8 human patients suffering from ALS.
ALSAQ-40 was assessed pre-treatment and weekly thereafter for the 10 treatment weeks and for the visits at the follow-up period.

[3] = Acute phase 1: drug 30 min, sacrifice 2 d post-TBI
[4] = Acute phase 2: drug 30 min, sacrifice 7 d post-TBI
[5] = Chronic phase: drug 3 d, sacrifice 7 d post-TBI

Q: Which results are given for sodium salt of dextran sulfate [LMW-DS]?
A: ALA (rats subjected to sTBI; [3]): 0.50±0.12^a µmol/g (w.w.); ARG (rats subjected to sTBI; [3]): 0.13±0.02^b,d µmol/g (w.w.); ASN (rats subjected to sTBI; [3]): 0.12±0.02^i µmol/g (w.w.); ASP (rats subjected to sTBI; [3]): 2.40±0.56^d,i µmol/g (w.w.); CITR (rats subjected to sTBI; [3]): 0.018 ± 0.004 µmol/g (w.w.); GABA (rats subjected to sTBI; [3]): 1.43±0.25^a µmol/g (w.w.); GLN (rats subjected to sTBI; [3]): 4.78±1.09^a µmol/g (w.w.); GLU (rats subjected to sTBI; [3]): 9.81±1.66^i µmol/g (w.w.); GLY (rats subjected to sTBI; [3]): 0.83±0.25^a,c µmol/g (w.w.); HIS (rats subjected to sTBI; [3]): 0.068±0.015^b µmol/g (w.w.); L-Cystat (rats subjected to sTBI; [3]): 0.185±0.031^b,c,i µmol/g (w.w.); MET (rats subjected to sTBI; [3]): 0.016±0.005^d,j µmol/g (w.w.); SAH (rats subjected to sTBI; [3]): 0.033±0.008^b,c,j µmol/g (w.w.); SER (rats subjected to sTBI; [3]): 0.88±0.25^a µmol/g (w.w.); TAU (rats subjected to sTBI; [3]): 4.86±00.85^b µmol/g (w.w.); THR (rats subjected to sTBI; [3]): 0.92±0.29^a µmol/g (w.w.); TYR (rats subjected to sTBI; [3]): 0.15 ± 0.03 µmol/g (w.w.); VAL (rats subjected to sTBI; [3]): 0.042 ± 0.011 µmol/g (w.w.); ALA (rats subjected to sTBI; [4]): 0.52±0.24^a,e µmol/g (w.w.); ARG (rats subjected to sTBI; [4]): 0.16 ± 0.03 µmol/g (w.w.); ASN (rats subjected to sTBI; [4]): 0.13±0.03^i µmol/g (w.w.); ASP (rats subjected to sTBI; [4]): 2.94±0.98^f,j µmol/g (w.w.); CITR (rats subjected to sTBI; [4]): 0.018 ± 0.008 µmol/g (w.w.); GABA (rats subjected to sTBI; [4]): 1.60±0.24^a µmol/g (w.w.); GLN (rats subjected to sTBI; [4]): 3.66 ± 0.41 µmol/g (w.w.); GLU (rats subjected to sTBI; [4]): 9.93±1.56^e,i µmol/g (w.w.); GLY (rats subjected to sTBI; [4]): 0.71±0.16^f,i µmol/g (w.w.); HIS (rats subjected to sTBI; [4]): 0.055 ± 0.019 µmol/g (w.w.); L-Cystat (rats subjected to sTBI; [4]): 0.173±0.038^b,f,i µmol/g (w.w.); MET (rats subjected to sTBI; [4]): 0.022±0.006^b,e,i µmol/g (w.w.); SAH (rats subjected to sTBI; [4]): 0.026±0.010^f,i µmol/g (w.w.); SER (rats subjected to sTBI; [4]): 0.71±0.28^b µmol/g (w.w.); TAU (rats subjected to sTBI; [4]): 3.80 ± 1.19 µmol/g (w.w.); THR (rats subjected to sTBI; [4]): 0.66 ± 0.23 µmol/g (w.w.); TYR (rats subjected to sTBI; [4]): 0.172±0.046^b,f µmol/g (w.w.); VAL (rats subjected to sTBI; [4]): 0.057 ± 0.017 µmol/g (w.w.); ALA (rats subjected to sTBI; [5]): 0.57±0.28^a,e µmol/g (w.w.); ARG (rats subjected to sTBI; [5]): 0.14 ± 0.02 µmol/g (w.w.); ASN (rats subjected to sTBI; [5]): 0.18±0.02^a µmol/g (w.w.); ASP (rats subjected to sTBI; [5]): 4.46±0.70^a,f µmol/g (w.w.); CITR (rats subjected to sTBI; [5]): 0.020 ± 0.006 µmol/g (w.w.); GABA (rats subjected to sTBI; [5]): 1.85±0.65^a µmol/g (w.w.); GLN (rats subjected to sTBI; [5]): 3.98 ± 0.34 µmol/g (w.w.); GLU (rats subjected to sTBI; [5]): 13.58±1.28^a µmol/g (w.w.); GLY (rats subjected to sTBI; [5]): 1.05±0.13^a,f µmol/g (w.w.); HIS (rats subjected to sTBI; [5]): 0.047 ± 0.021 µmol/g (w.w.); L-Cystat (rats subjected to sTBI; [5]): 0.26±0.05^a,f µmol/g (w.w.); MET (rats subjected to sTBI; [5]): 0.009±0.004^b µmol/g (w.w.); SAH (rats subjected to sTBI; [5]): 0.050±0.013^a µmol/g (w.w.); SER (rats subjected to sTBI; [5]): 0.93±0.27^a,e µmol/g (w.w.); TAU (rats subjected to sTBI; [5]): 4.49±0.43^a µmol/g (w.w.); THR (rats subjected to sTBI; [5]): 0.75±0.24^a,e µmol/g (w.w.); TYR (rats subjected to sTBI; [5]): 0.21±0.05^f µmol/g (w.w.); VAL (rats subjected to sTBI; [5]): 0.040±0.016^b µmol/g (w.w.); glutamate excitotoxicity marker (rats subjected to sTBI; LMW-DS injected at 3 days after sTBI): no efficacy; increase in glutamate (GLU) induced by sTBI (rats subjected to sTBI; drug administered early post-injury (30 min following sTBI)): remarkable inhibition; Decreased biomarker activity [1]: MCP-1; Increased biomarker activity [1]: IL-8; fibronectin levels (quantification of fibronectin staining) [2]: 1136 ± 155; ALSAQ-40 ADL sub-score (ALS patients): 44.4 ± 24.7; ALSAQ-40 PM sub-score (ALS patients): 22.7 ± 20.2; decline of ALSAQ-40 ADL sub-score (ALS patients): 18.6%; decline of ALSAQ-40 PM sub-score (ALS patients): 16%
